In patent publication US6355799B1, “Substituted benzene compounds, process for their preparation, and herbicidal and defoliant compositions containing them” (ISK Americas Incorporated, priority 1997, dated 2002):

Columns and labels:
Type in all cases: in vivo
[1] = tested on: redroot pigweed (Amaranthus retroflexus, AMARE); experiment: Pre-emerge test, greenhouse herbicide activity screening; details: pre-emerge, 14 days after application, scale 0-100
Summary of the method: (§1)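 Compounds in acetone were track-sprayed at 15-1000 g ai/ha (187 l/ha) on sandy loam pots: pre-emerge one day after seeding, post-emerge at 2-3 leaf stage with 0.25% v/v non-ionic surfactant. Phytotoxicity was rated 14 days later on a 0 (no damage) to 100 (complete death) scale.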

[2] = tested on: lambsquarters (Chenopodium album, CHEAL); experiment: Post-emerge test, greenhouse herbicide activity screening; details: post-emerge; for CHEAL phytotoxicity rating: 14 days after application, rating scale 0-100; for Post-emerge Herbicidal Activity CHEAL: phytotoxicity rating 0-100 at 14 days after application
Summary of the method: (§2)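 Each test used a mechanized track sprayer delivering 187 l/ha of acetone solution at 15–1000 g ai/ha. Post-emerge foliage at 2–3 leaves was treated with added 0.25% v/v non-ionic surfactant and bottom-watered only. Injury was assessed on day 14, where 100 means total kill.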

[3] = tested on: barnyardgrass (Echinochloa crus-galli, ECHCG); experiment: as above; details: post-emerge; for ECHCG phytotoxicity rating: 14 days after application, rating scale 0-100; for Post-emerge Herbicidal Activity ECHCG: phytotoxicity rating 0-100 at 14 days after application
Summary of the method: as §2

[4] = tested on: johnsongrass (Sorghum halepense, SORHA); experiment: as above; details: post-emerge; for SORHA phytotoxicity rating: 14 days after application, rating scale 0-100; for Post-emerge Herbicidal Activity SORHA: phytotoxicity rating 0-100 at 14 days after application
Summary of the method: as §2

[5] = tested on: green foxtail (Setaria viridis, SETVI); experiment: as above; details: post-emerge; for SETVI phytotoxicity rating: 14 days after application, rating scale 0-100; for Post-emerge Herbicidal Activity SETVI: phytotoxicity rating 0-100 at 14 days after application
Summary of the method: as §2

[6] = tested on: velvetleaf (Abutilon theophrasti, ABUTH); experiment: as above; details: post-emerge; for ABUTH phytotoxicity rating: 14 days after application, rating scale 0-100; for Post-emerge Herbicidal Activity ABUTH: phytotoxicity rating 0-100 at 14 days after application
Summary of the method: as §2

[7] = tested on: sicklepod (Cassia obtusifolia, CASOB); experiment: as above; details: post-emerge; for CASOB phytotoxicity rating: 14 days after application, rating scale 0-100; for Post-emerge Herbicidal Activity CASOB: phytotoxicity rating 0-100 at 14 days after application
Summary of the method: as §2

[8] = tested on: redroot pigweed (Amaranthus retroflexus, AMARE); experiment: as above; details: post-emerge; for AMARE phytotoxicity rating: 14 days after application, rating scale 0-100; for Post-emerge Herbicidal Activity AMARE: phytotoxicity rating 0-100 at 14 days after application
Summary of the method: as §2

[9] = tested on: large crabgrass (Digitaria sanguinalis, DIGSA); experiment: as above; details: post-emerge; for DIGSA phytotoxicity rating: 14 days after application, rating scale 0-100; for Post-emerge Herbicidal Activity DIGSA: phytotoxicity rating 0-100 at 14 days after application
Summary of the method: as §2

[10] = tested on: ivyleaf morningglory (Ipomoea hederacea, IPOHE); experiment: as above; details: post-emerge; for IPOHE phytotoxicity rating: 14 days after application, rating scale 0-100; for Post-emerge Herbicidal Activity IPOHE: phytotoxicity rating 0-100 at 14 days after application
Summary of the method: as §2

[11] = tested on: upland rice (Oryza sp., var. Tebonnet, RICE); experiment: Post-emerge test, crop safety; details: post-emerge; for RICE phytotoxicity rating (crop damage): 14 days after application, rating scale 0-100; for Post-emerge Herbicidal Activity RICE: crop damage rating 0-100 at 14 days after application
Summary of the method: as §1

[12] = tested on: field corn (Zea mays L., var. Dekalb 535, CORN); experiment: Post-emerge test, crop safety; details: post-emerge; for CORN phytotoxicity rating (crop damage): 14 days after application, rating scale 0-100; for Post-emerge Herbicidal Activity CORN: crop damage rating 0-100 at 14 days after application
Summary of the method: as §1

[13] = tested on: lambsquarters (Chenopodium album, CHEAL); experiment: Pre-emerge test, greenhouse herbicide activity screening; details: pre-emerge, 14 days after application, scale 0-100
Summary of the method: as §1

[14] = tested on: barnyardgrass (Echinochloa crus-galli, ECHCG); experiment: as above; details: pre-emerge, 14 days after application, scale 0-100
Summary of the method: as §1

[15] = tested on: green foxtail (Setaria viridis, SETVI); experiment: as above; details: pre-emerge, 14 days after application, scale 0-100
Summary of the method: as §1

[16] = tested on: velvetleaf (Abutilon theophrasti, ABUTH); experiment: as above; details: pre-emerge, 14 days after application, scale 0-100
Summary of the method: as §1

[17] = tested on: sicklepod (Cassia obtusifolia, CASOB); experiment: as above; details: pre-emerge, 14 days after application, scale 0-100
Summary of the method: as §1

[18] = tested on: large crabgrass (Digitaria sanguinalis, DIGSA); experiment: as above; details: pre-emerge, 14 days after application, scale 0-100
Summary of the method: as §1

[19] = tested on: ivyleaf morningglory (Ipomoea hederacea, IPOHE); experiment: as above; details: pre-emerge, 14 days after application, scale 0-100
Summary of the method: as §1

[20] = tested on: upland rice (Oryza sp., var. Tebonnet, RICE); experiment: Pre-emerge test, crop safety; details: pre-emerge, 14 days after application, scale 0-100
Summary of the method: as §1

[21] = tested on: field corn (Zea mays L., var. Dekalb 535, CORN); experiment: Pre-emerge test, crop safety; details: pre-emerge, 14 days after application, scale 0-100
Summary of the method: as §1

In the case of `COc1c(Cl)cc(F)c(-n2c(=O)cc(C(F)(F)F)n(C)c2=O)c1NC(=O)C=Cc1ccccc1[N+](=O)[O-]` [2-126], the “phytotoxicity rating AMARE” value ([1]; 63 g ai/ha) is reported as 100, the “phytotoxicity rating AMARE” value ([1]; 250 g ai/ha) is reported as 100 and the CHEAL phytotoxicity rating ([2]; 63 g ai/ha) is reported as 80. The CHEAL phytotoxicity rating ([2]; 250 g ai/ha) was 95, the ECHCG phytotoxicity rating ([3]; 63 g ai/ha) was 0 and the ECHCG phytotoxicity rating ([3]; 250 g ai/ha) was 10. It also gave an SORHA phytotoxicity rating ([4]; 63 g ai/ha) of 0, an SORHA phytotoxicity rating ([4]; 250 g ai/ha) of 10 and an SETVI phytotoxicity rating ([5]; 63 g ai/ha) of 30. For the same compound, the SETVI phytotoxicity rating ([5]; 250 g ai/ha) was 40, the ABUTH phytotoxicity rating ([6]; 63 g ai/ha) was 90 and the ABUTH phytotoxicity rating ([6]; 250 g ai/ha) was 100. It also gave a CASOB phytotoxicity rating ([7]; 63 g ai/ha) of 60, a CASOB phytotoxicity rating ([7]; 250 g ai/ha) of 60 and an AMARE phytotoxicity rating ([8]; 63 g ai/ha) of 80. The AMARE phytotoxicity rating ([8]; 250 g ai/ha) was 100, the DIGSA phytotoxicity rating ([9]; 63 g ai/ha) was 20 and the DIGSA phytotoxicity rating ([9]; 250 g ai/ha) was 30. For the same compound, the IPOHE phytotoxicity rating ([10]; 63 g ai/ha) was 80, the IPOHE phytotoxicity rating ([10]; 250 g ai/ha) was 100 and the “RICE phytotoxicity rating (crop damage)” value ([11]; 63 g ai/ha) was 0. For the same compound, the “RICE phytotoxicity rating (crop damage)” value ([11]; 250 g ai/ha) was 50, the “CORN phytotoxicity rating (crop damage)” value ([12]; 63 g ai/ha) was 10 and the “CORN phytotoxicity rating (crop damage)” value ([12]; 250 g ai/ha) was 10. The “phytotoxicity rating CHEAL” value ([13]; 63 g ai/ha) was 100, the “phytotoxicity rating CHEAL” value ([13]; 250 g ai/ha) was 100 and the “phytotoxicity rating ECHCG” value ([14]; 63 g ai/ha) was 10. The “phytotoxicity rating ECHCG” value ([14]; 250 g ai/ha) was 40, the “phytotoxicity rating SETVI” value ([15]; 63 g ai/ha) was 40 and the “phytotoxicity rating SETVI” value ([15]; 250 g ai/ha) was 100. The “phytotoxicity rating ABUTH” value ([16]; 63 g ai/ha) was 100, the “phytotoxicity rating ABUTH” value ([16]; 250 g ai/ha) was 100 and the “phytotoxicity rating CASOB” value ([17]; 63 g ai/ha) was 10. For the same compound, the “phytotoxicity rating CASOB” value ([17]; 250 g ai/ha) was 70, the “phytotoxicity rating DIGSA” value ([18]; 63 g ai/ha) was 30 and the “phytotoxicity rating DIGSA” value ([18]; 250 g ai/ha) was 90. For the same compound, the “phytotoxicity rating IPOHE” value ([19]; 63 g ai/ha) was 10, the “phytotoxicity rating IPOHE” value ([19]; 250 g ai/ha) was 90 and the “phytotoxicity rating RICE (crop damage)” value ([20]; 63 g ai/ha) was 10. The “phytotoxicity rating RICE (crop damage)” value ([20]; 250 g ai/ha) was 60, the “phytotoxicity rating CORN (crop damage)” value ([21]; 63 g ai/ha) was 0 and the “phytotoxicity rating CORN (crop damage)” value ([21]; 250 g ai/ha) was 5.
In the case of `COc1c(Cl)cc(F)c(-n2c(=O)n3n(c2=O)CCCC3)c1NC(=O)c1ccc2ccccc2c1` [9-15], the “Post-emerge Herbicidal Activity CHEAL” value ([2]; 63 g ai/ha) is reported as 100, the “Post-emerge Herbicidal Activity CHEAL” value ([2]; 250 g ai/ha) is reported as 100 and the “Post-emerge Herbicidal Activity ECHCG” value ([3]; 63 g ai/ha) is reported as 0. For the same compound, the “Post-emerge Herbicidal Activity ECHCG” value ([3]; 250 g ai/ha) was 10, the “Post-emerge Herbicidal Activity SORHA” value ([4]; 63 g ai/ha) was 0 and the “Post-emerge Herbicidal Activity SORHA” value ([4]; 250 g ai/ha) was 10. The “Post-emerge Herbicidal Activity SETVI” value ([5]; 63 g ai/ha) was 10, the “Post-emerge Herbicidal Activity SETVI” value ([5]; 250 g ai/ha) was 35 and the “Post-emerge Herbicidal Activity ABUTH” value ([6]; 63 g ai/ha) was 100. For the same compound, the “Post-emerge Herbicidal Activity ABUTH” value ([6]; 250 g ai/ha) was 100, the “Post-emerge Herbicidal Activity CASOB” value ([7]; 63 g ai/ha) was 100 and the “Post-emerge Herbicidal Activity CASOB” value ([7]; 250 g ai/ha) was 100. The “Post-emerge Herbicidal Activity AMARE” value ([8]; 63 g ai/ha) was 100, the “Post-emerge Herbicidal Activity AMARE” value ([8]; 250 g ai/ha) was 100 and the “Post-emerge Herbicidal Activity DIGSA” value ([9]; 63 g ai/ha) was 0. For the same compound, the “Post-emerge Herbicidal Activity DIGSA” value ([9]; 250 g ai/ha) was 20, the “Post-emerge Herbicidal Activity IPOHE” value ([10]; 63 g ai/ha) was 100 and the “Post-emerge Herbicidal Activity IPOHE” value ([10]; 250 g ai/ha) was 100. The “Post-emerge Herbicidal Activity RICE” value ([11]; 63 g ai/ha) was 40, the “Post-emerge Herbicidal Activity RICE” value ([11]; 250 g ai/ha) was 70 and the “Post-emerge Herbicidal Activity CORN” value ([12]; 63 g ai/ha) was 5. For the same compound, the “Post-emerge Herbicidal Activity CORN” value ([12]; 250 g ai/ha) was 10.
